Like-named read-outs stand apart in the source and are kept apart here.

For one data set, the system named is IL-22. As to the kind of experiment: Real-time qRT-PCR in TH17 cells: IL-22 gene expression. Type of data set: cell-based, human. The arrangement: key: A: No change in gene expression observed relative to DMSO treated Th17 cells; B: Decreased gene expression observed relative to DMSO treated Th17 cells; C: Increased gene expression observed relative to DMSO treated Th17 cells. Here is the method:
(§1) Peripheral blood mononuclear cells (PBMCs) were sourced from freshly prepared leukocyte enriched plasma (buffy coat) from healthy volunteers from which PBMCs were isolated by density gradient centrifugation using Ficoll-Paque™ PLUS (GE Healthcare). Naïve CD4+ T cells were isolated using the Naïve CD4+ T cell Isolation Kit II (Miltenyi Biotec) as per manufacturer's instructions. CD4+ T cells were plated at 5×10^4 cells/well in 96 well plates pre-coated with immobilized human (h)-αCD3 antibody (eBioscience) then differentiated to TH17 cells using h-αCD28, h-αIFNγ, h-αIL4, h-IL6, h-IL23, h-IL1β, h-TGFβ1 (eBioscience) and maintained in a cell culture incubator at 37° C. with 5% CO2 in TexMACS Medium (Miltenyi Biotec) supplemented with 1% Penicillin/Streptomycin (Lonza) over 5 days.
(§2) RNA was isolated from TH17 cells and cDNA was synthesized using the Verso cDNA kit (Thermo Scientific) as per manufacturer's instructions. IL-17A, IL-17F, IL-21, IL-22, G-CSF, IL-23R and FOXP3 gene expression were determined for compound treated and untreated TH17 cell samples using Solaris qPCR Gene expression assays (Thermo Scientific) with an iCycler iQ Real-Time PCR Detection System (Bio-Rad). Individual gene expression was normalized to a panel of six reference genes (ACTB, TBP, HPRT1, PGK1, TFRC and PPIA) (Thermo Scientific) and analyzed by REST 2009 (Qiagen) in accordance to MIQE guidelines (Bustin et al. (2009) Clin. Chem, 55:611-622). The effects of compounds on TH17 cytokine mRNA levels are presented as fold change in gene expression of compound treated TH17 cells relative to DMSO treated cells in the table below.
For orientation: In qPCR the cycle at which signal appears reflects the starting amount.

In data set [1] the test system is IL-21. In words: Real-time qRT-PCR in TH17 cells: IL-21 gene expression. The arrangement: key: A: No change in gene expression observed relative to DMSO treated Th17 cells; B: Decreased gene expression observed relative to DMSO treated Th17 cells; C: Increased gene expression observed relative to DMSO treated Th17 cells. Type of data set: cell-based, human. As to the method:
as §1, §2

A further data set deals with RORα LBD (Homo sapiens (Human), UniProt P35398). In words: TR-FRET co-repressor NCoR1-D2 interaction with RORα LBD. Type of data set: biochemical. Background: Time-resolved FRET reads energy transfer from a long-lived donor to a nearby acceptor.
A short description of data set [2]: TH17 cell viability (Prestoblue). Type of data set: cell-based. The arrangement: concentration or dose not given beside the values. As to conditions: human; percentage of DMSO treated cells; read-out: % viability of compound treated TH17 cells.
In a further data set the test system is IL-17AF. As to the kind of experiment: TH17 cytokine inhibition as measured by ELISA: IL-17AF. Type of data set: cell-based. Particulars: 120 h; human TH17 cells, 5 days differentiation, ELISA of supernatant. Here is the method: as §1
(§3) Human CD4+ T cells were differentiated to TH17 cells as described in the presence or absence of various concentrations of compounds in a final concentration of 0.1% DMSO in TexMACS medium. Supernatants were collected and stored at −20° C. until they were to be assayed for IL-17A, IL-17F, IL-17AF, IL-21 and/or IL-22 levels as determined by Ready-Set-Go ELISA kits (eBioscience) as per manufacturer's instructions. Endpoint absorbance was read at 450 nm and 570 nm according to manufacturer's instructions (eBioscience) using a microplate reader (Perkin Elmer). The percentage of cytokine inhibition was calculated with reference to DMSO treated cells and the IC50s were determined by GraphPad Prism software and presented in the table below.
(ELISA stands for enzyme-linked immunosorbent assay.)

A further data set concerns IL-17A. In words: TH17 cytokine inhibition as measured by ELISA: IL-17A. Type of data set: cell-based. As to conditions: 120 h; human TH17 cells, 5 days differentiation, ELISA of supernatant.
For data set [3], the system named is IL-21. In words: TH17 cytokine inhibition as measured by ELISA: IL-21. The format is cell-based. As to conditions: 120 h; human TH17 cells, 5 days differentiation, ELISA of supernatant.
Excerpt: Peripheral blood mononuclear cells (PBMCs) were sourced from freshly prepared leukocyte enriched plasma (buffy coat) from healthy volunteers from which PBMCs were isolated by density gradient centrifugation using Ficoll-Paque™ PLUS (GE Healthcare). Naïve CD4+ T cells were isolated using the Naïve CD4+ T cell Isolation Kit II (Miltenyi Biotec) as per manufacturer's instructions. […]
as §3

[4] abbreviates: 2 hr, read-out: RORα EC50 NCoR1-D2 co-repressor recruitment 2 hr.
[5] abbreviates: 20 hr, read-out: RORα EC50 NCoR1-D2 co-repressor recruitment 20 hr.

Sequence of RORα LBD (P35398 272-510): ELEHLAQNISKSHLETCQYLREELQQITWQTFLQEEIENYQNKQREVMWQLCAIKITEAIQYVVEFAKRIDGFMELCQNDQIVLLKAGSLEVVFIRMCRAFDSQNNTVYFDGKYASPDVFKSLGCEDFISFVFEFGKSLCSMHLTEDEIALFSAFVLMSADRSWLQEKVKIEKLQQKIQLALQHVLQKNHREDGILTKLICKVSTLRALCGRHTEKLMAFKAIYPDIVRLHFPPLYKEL

Broadly, the EC50 is the concentration needed to bring the measured effect to its halfway point. The term viability denotes a per cent measure of how many cells are alive, often set against a control. Usually IC50 stands for the point on the concentration scale where inhibition reaches its midpoint. For the compound `CC(=O)Nc1ccc2c(c1)CCCN2Cc1ccc(C(O)(C(F)(F)F)C(F)(F)F)cc1` [Example 2, N-(1-(4-(1,1,1,3,3,3-hexafluoro-2-hydroxypropan-2-yl)benzyl)-1,2,3,4-tetrahydroquinolin-6-yl)acetamide], the “Fold change in mRNA level of compound treated TH17 cells relative to DMSO treated cells IL-22” value in the data set on IL-22 is reported as “A”. Further, in the data set on IL-21 [1], the “Fold change in mRNA level of compound treated TH17 cells relative to DMSO treated cells IL-21” value is recorded as “A”. Also, the concentration giving a half-maximal response (EC50) at RORα LBD (setting [4]) and on RORα LBD (setting [5]) was more than 30 µM in each case. For the same compound, the viability in data set [2] was more than 80%. Besides, the IC50 in the data set on IL-17AF and in the data set on IL-17A was less than 10 µM each time.

With `CC(=O)Nc1ccc2c(c1)CCN2Cc1ccc(C(O)(C(F)(F)F)C(F)(F)F)cc1` [Example 4, N-(1-(4-(1,1,1,3,3,3-hexafluoro-2-hydroxypropan-2-yl)benzyl)indolin-5-yl)acetamide], the “Fold change in mRNA level of compound treated TH17 cells relative to DMSO treated cells IL-22” value in the data set with IL-22 was “C”. Besides, the “Fold change in mRNA level of compound treated TH17 cells relative to DMSO treated cells IL-21” value in the data set on IL-21 [1] is “B”. The half-maximal inhibitory concentration (IC50) in the data set with IL-21 [3], with IL-17AF and in the data set with IL-17A was less than 10 µM throughout. For the same compound, the concentration for a half-maximal effect (EC50) on RORα LBD (setting [4]) and on RORα LBD (setting [5]) was more than 30 µM each time. Moreover, in data set [2], the viability is more than 80%.

As for `CS(=O)(=O)Nc1ccc2c(c1)CCCN2Cc1ccc(C(O)(C(F)(F)F)C(F)(F)F)cc1` [Example 5, N-(1-(4-(1,1,1,3,3,3-hexafluoro-2-hydroxypropan-2-yl)benzyl)-1,2,3,4-tetrahydroquinolin-6-yl)methanesulfonamide], in the data set on IL-22, the “Fold change in mRNA level of compound treated TH17 cells relative to DMSO treated cells IL-22” value is “A”. For the same compound, the “Fold change in mRNA level of compound treated TH17 cells relative to DMSO treated cells IL-21” value in the data set on IL-21 [1] was “B”. In addition, the concentration for a half-maximal effect (EC50) on RORα LBD (setting [4]) and at RORα LBD (setting [5]) was less than 30 µM each time. For the same compound, the viability in data set [2] was more than 80%. This compound had a concentration for half-maximal inhibition (IC50) in the data set on IL-17A of less than 10 µM.

(Values after patent US9321750B2, “ROR modulators and their uses” (INNOV17 LLC, priority 2012, dated 2016).)
